The values that follow come from US12642270B2, “Substituted thiophene carboxamides, thiophene carboxylic acids and derivatives thereof” (Bayer Aktiengesellschaft, priority 2019, dated 2026).

The first series can be described thus: Log P by HPLC on reversed phase columns (EEC directive 79/831 Annex V.A8). The series is classed as physicochemical. The settings on record: LogP method [a]; compounds of formula (I), Table 1.1. The method in brief:
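Values come from retention times calibrated against alkan-2-ones (3–16 carbons) by linear interpolation, using reversed-phase LC-UV per EEC directive 79/831 Annex V.A8. Acetonitrile gradient 10–95% with 0.1% formic acid [a], 0.001 M ammonium acetate [b] or 0.1% phosphoric acid [c]; several values within one method separated by "+".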
In the case of `N#CCNC(=O)c1sc(Br)c(C(F)F)c1Br` [1.0509], the LogP was 2.37^[a].

For the compound `CCOC(=O)C1(NC(=O)c2cc(F)c(Br)s2)CC1` [1.0460], the LogP was 2.51^[a].

On to `CCOC(=O)C(NC(=O)c1sc(Br)c(Br)c1F)C(C)C` (stereo not drawn) [1.0451], for which the LogP is 2.63^[a].

As to `COC(=O)C(CC(F)F)NC(=O)c1sc(Br)c(Br)c1F` (stereo not drawn) [1.0440], the LogP is 3.23^[a].

Regarding `CCOC(=O)CCNC(=O)c1cc(F)c(Br)s1` [1.0456], the LogP was 2.47^[a].

Regarding `CCOC(=O)C(CCSC)NC(=O)c1sc(Br)c(C#N)c1Br` (stereo not drawn) [1.0411], the LogP was 3.55^[a].

Regarding `COC(=O)CNC(=O)c1sc(Br)c(Cl)c1F` [1.0422], the LogP is 2.47^[a].

With `CCCOC(=O)C1(NC(=O)c2sc(Br)c(C(F)F)c2Br)CC1` [1.0507], the LogP was 3.42^[a].

Regarding `O=C(O)CNC(=O)c1cc(I)c(I)s1` [1.0471], the LogP is 1.87^[a].

In the case of `COC(=O)C(NC(=O)c1sc(Br)c(C#N)c1Br)C1CC1` (stereo not drawn) [1.0409], the LogP was 3.02^[a].

As for `CCOC(=O)CNC(=O)c1cc(Cl)c(Br)s1` [1.0461], the LogP is 2.59^[a].

As for `CCOC(=O)C1(NC(=O)c2cc(I)c(I)s2)CC1` [1.0468], the LogP was 2.98^[a].

For the compound `CCOC(=O)C(CC(C)C)NC(=O)c1cc(Br)c(Cl)s1` (stereo not drawn) [1.0436], the LogP was 4.23^[a].

Still in this series, the particulars now being: method [a].
`CCCOC(=O)C1(NC(=O)c2sc(Cl)c(Br)c2Br)CC1` [1.0593]: the LogP was 3.98^[a].

On to `COC(=O)C1(NC(=O)c2sc(Br)c(Br)c2F)CC(C)(C)C1` [1.0621], for which the LogP was 4.12^[a].

For the compound `COC(=O)C(CC(F)F)NC(=O)c1sc(Br)c(Br)c1Cl` (stereo not drawn) [1.0146], the LogP was 3.62^[a].

As for `CCOC(=O)C(CSC(C)=O)NC(=O)c1sc(Cl)c(Cl)c1Br` (stereo not drawn) [1.0547], the LogP is 3.46^[a].

As for `O=C(O)CNC(=S)c1sc(Cl)c(Cl)c1Br` [1.0854], the LogP is 3.11^[a].

In the case of `CNC(=S)SC[C@H](NC(=O)c1sc(Cl)c(Cl)c1Br)C(=O)OC` [1.0531], the LogP is 3.56^[a].

For `C#CCOC(=O)CNC(=O)c1sc(C#N)c(Cl)c1Cl` [1.0911], the LogP was 2.63^[a].

In the case of `CCCOC(=O)C1(NC(=O)c2sc(Br)c(Br)c2Cl)CCC1` [1.0917], the LogP is 4.78^[a].

Turning to `COC(=O)CNC(=S)c1sc(Br)c(Br)c1Cl` [1.0852], the LogP was 4.07^[a].

`CCOC(=O)C(CCSC)NC(=O)c1sc(Br)c(Br)c1Cl` (stereo not drawn) [1.0148]: the LogP is 4.46^[a].

In the case of `N#CCCOC(=O)CNC(=O)c1sc(Br)c(Br)c1F` [1.0858], the LogP was 2.48^[a].

Turning to `NC(=S)C1(NC(=O)c2sc(Br)c(Br)c2Cl)CC1` [1.0919], the LogP is 2.80^[a].

Turning to `CCOC(=O)CNC(=O)c1sc(C)c(Cl)c1F` [1.0793], the LogP is 2.54^[a].

Regarding `COC(=O)C1(NC(=O)c2sc(Br)c(C(F)F)c2Br)CC1` [1.0649], the LogP is 2.70^[a].

Turning to `COC(=O)CNC(=S)c1sc(C#N)c(Br)c1C` [1.0864], the LogP is 2.92^[a].

Regarding `COC(=O)CNC(=O)c1sc(Cl)c(C#N)c1Br` [1.0654], the LogP was 2.21^[a].

Turning to `CCCOC(=O)C1(NC(=O)c2sc(Cl)c(Br)c2C)CC1` [1.0625], the LogP is 3.62^[a].

Turning to `CCOC(=O)CC[C@H](NC(=O)c1sc(Br)c(Br)c1Cl)C(=O)OCC` [1.0532], the LogP was 4.23^[a].

Consider `CC(C)OC(=O)C1(NC(=O)c2sc(Br)c(Br)c2F)CCC1` [1.0620], for which the LogP is 4.23^[a].

Regarding `COC(=O)C(CC(F)F)NC(=O)c1sc(Cl)c(Br)c1Cl` (stereo not drawn) [1.0184], the LogP is 3.64^[a].

`COC(=O)C1(NC(=O)c2sc(Cl)c(Br)c2C#N)CC1` [1.0600]: the LogP is 2.36^[a].

For `CCOC(=O)CNC(=O)c1sc(Br)c(Br)c1C#N` [1.0797], the LogP is 2.59^[a].

Regarding `CCOC(=O)C1(NC(=O)c2sc(Cl)c(Br)c2F)CCC1` [1.0642], the LogP was 3.75^[a].

For the compound `CC(C)OC(=O)C(NC(=O)c1sc(Br)c(Br)c1F)C1CC1` (racemic) [1.0923], the LogP was 4.40^[a].

As for `CCOC(=O)C(Cc1ccccc1)NC(=O)c1sc(Br)c(Br)c1Cl` (stereo not drawn) [1.0149], the LogP was 5.00^[a].

Turning to `CCOC(=O)C1(NC(=O)c2sc(Br)c(Br)c2F)CSC1` [1.0795], the LogP was 3.59^[a].

For the compound `CCOC(=O)C(Cc1c[nH]c2ccccc12)NC(=O)c1sc(Br)c(Cl)c1C` (stereo not drawn) [1.0132], the LogP was 4.11^[a].

As to `CCSC(=O)C1(NC(=O)c2sc(Cl)c(Cl)c2C)CC1` [1.0251], the LogP was 4.08^[a].

On to `CCOC(=O)C1(NC(=O)c2sc(C#N)c(Cl)c2Cl)CCC1` [1.0579], for which the LogP was 3.35^[a].

For `N#CC1(NC(=O)c2sc(Br)c(Br)c2F)CCSCC1` [1.0871], the LogP was 3.40^[a].

For `COC(=O)C(C1CC1)N(O)C(=O)c1sc(Cl)c(Cl)c1Br` (stereo not drawn) [1.0544], the LogP was 3.05^[a].

The same series, now with this note: method [a]: LC-UV, acidic range, 0.1% formic acid in water and acetonitrile.
With `COC(=O)C(Cc1ccccc1)NC(=O)C(CC(=O)O)NC(=O)c1sc(Cl)c(Cl)c1Br` (stereo not drawn) [I.0487], the LogP was 3.23^[a].

Consider `O=C(NC1CCCCNC1=O)c1sc(Br)c(Br)c1F` (stereo not drawn) [I.0951], for which the LogP is 2.68^[a].

With `O=C(NC1CCOC1=O)c1sc(Br)c(Br)c1Cl` (stereo not drawn) [I.1031], the LogP is 2.58^[a].

In the case of `COC(=O)c1sc(Cl)c(Br)c1C#N` [II.077], the LogP is 2.99^[a].

As for `Cc1c(C(=O)NC2CCSC2=O)sc(Br)c1Cl` (stereo not drawn) [I.0822], the LogP is 3.46^[a].

In the case of `O=C(O)c1cc(Br)c(Cl)s1` [II.043], the LogP is 2.28^[a].

Take `O=C(N[C@H]1CCOC1=O)c1sc(Br)c(Br)c1Cl` [I.0932]: the LogP was 2.62^[a].

Staying with this series, now noted: method [a]; compounds of formula (I), Table 1.1.
Regarding `Cc1c(C(=O)NC2(C#N)CC2)sc(Cl)c1Br` [1.0106], the LogP was 2.78^[a].

Consider `N#CC1(NC(=O)c2sc(Br)c(Br)c2F)CCC1` [1.0116], for which the LogP was 3.11^[a].

For `CCOC(=O)C(NC(=O)c1sc(Cl)c(Br)c1C)C(C)C` (stereo not drawn) [1.0067], the LogP is 4.30^[a].

For the compound `CCOC(=O)C(Cc1ccccc1)NC(=O)c1cc(C)c(Cl)s1` (racemic) [1.0031], the LogP was 3.73^[a].

As to `CCOC(=O)C(NC(=O)c1cc(Br)c(C#N)s1)C(C)C` (stereo not drawn) [1.0054], the LogP is 3.27^[a].

`CCOC(=O)C1(NC(=O)c2sc(Br)c(Cl)c2C)CC1` [1.0074]: the LogP was 3.13^[a].

The series is the same for the next values; noted with them: method marked [a].
In the case of `CCOC(=O)CNC(=O)c1cc(Br)c(F)s1` [1.0311], the LogP is 2.33^[a].

In the case of `O=C(O)C1(NC(=S)c2sc(Br)c(Br)c2F)CC1` [1.0329], the LogP was 2.95^[a].

In the case of `CCOC(=O)CNC(=O)c1cc(Cl)c(C#N)s1` [1.0386], the LogP is 2.10^[a].

As for `CCOC(=O)C(NC(=O)c1sc(C#N)c(Br)c1C)C(=O)OCC` [1.0773], the LogP was 3.23^[a].

In the case of `O=C(CNC(=O)c1sc(Br)c(Br)c1F)OC1CCOC1` (stereo not drawn) [1.0678], the LogP is 2.53^[a].

Turning to `COC(=O)CNC(=O)c1sc(Cl)c(Cl)c1F` [1.0343], the LogP was 2.43^[a].

For `N#CCNC(=O)c1sc(Br)c(Br)c1C(F)F` [1.0353], the LogP is 2.54^[a].

With `CCOC(=O)CNC(=O)c1sc(Br)c(Cl)c1Br` [1.0781], the LogP was 3.40^[a].

On to `CCOC(=O)C(NC(=O)c1sc(Cl)c(C#N)c1Br)C(C)C` (stereo not drawn) [1.0658], for which the LogP was 3.83^[a].

In the case of `COC(=O)C(CC(F)F)NC(=O)c1sc(Br)c(Br)c1C(F)(F)F` (stereo not drawn) [1.0374], the LogP is 3.31^[a].

In the case of `COC(=O)[C@H](CCSC)NC(=O)c1sc(Br)c(Br)c1Cl` [1.0750], the LogP was 4.04^[a].

`COC(=O)C(C)(C)NC(=O)c1sc(Br)c(C#N)c1Cl` [1.0693]: the LogP was 2.84^[a].

Turning to `O=C(NC(C(=O)O)C1CC1)c1sc(Br)c(Br)c1I` (stereo not drawn) [1.0292], the LogP was 2.97^[a].

In the case of `CCOC(=O)C(C)(C)NC(=O)c1sc(Br)c(Cl)c1C` [1.0764], the LogP is 3.71^[a].

As to `CCOC(=O)C(COC)NC(=O)c1sc(Br)c(Br)c1Cl` (stereo not drawn) [1.0776], the LogP was 3.91^[a].

For `COC(=O)C(NC(=O)c1cc(C#N)c(Cl)s1)C1CC1` (stereo not drawn) [1.0381], the LogP was 2.47^[a].

Turning to `N#Cc1sc(C(=O)NC2(C(N)=O)CC2)c(Cl)c1Cl` [1.0788], the LogP is 1.67^[a].

For the compound `CCOC(=O)C(C#N)NC(=O)c1sc(Cl)c(Cl)c1Br` (stereo not drawn) [1.0743], the LogP is 3.35^[a].

Take `CCOC(=O)CNC(=O)c1sc(F)c(Cl)c1C` [1.0297]: the LogP was 2.59^[a].

Take `CCOC(=O)C1(NC(=S)c2sc(Br)c(Br)c2F)CCC1` [1.0331]: the LogP was 4.74^[a].

As to `COC(=O)CNC(=O)c1sc(F)c(Br)c1Br` [1.0698], the LogP was 2.60^[a].

On to `CCOC(=O)CN(OC)C(=O)c1sc(Br)c(Br)c1F` [1.0327], for which the LogP is 3.37^[a].

Staying with this series, now noted: method marker [a] given with each value; Table 1.1, compounds of formula (I).
For `CC(C)COC(=O)CNC(=O)c1sc(Br)c(Br)c1F` [1.1000], the LogP was 3.88^[a].

With `COC(=O)C(C)(Cc1ccccc1)NC(=O)c1sc(Cl)c(Cl)c1Br` (racemic) [1.0948], the LogP is 5.15^[a].

On to `CCOC(=O)C1(NC(=O)c2sc(Br)c(Cl)c2C)CSC1` [1.1063], for which the LogP is 3.62^[a].

With `O=C(CNC(=O)c1sc(Br)c(Br)c1Cl)OC1CC1` [1.0960], the LogP is 3.39^[a].

As for `O=C(CNC(=O)c1sc(Br)c(Br)c1F)OC1CSC1` [1.1007], the LogP was 3.37^[a].

As to `O=C(CNC(=O)c1sc(Br)c(Br)c1Cl)OCc1ccccc1` [1.0990], the LogP is 4.15^[a].

`COC(=O)C(C)(C)NC(=O)c1sc(Cl)c(Cl)c1Br` [1.1021]: the LogP was 3.71^[a].

With `CCOC(=O)C1(NC(=O)c2sc(Cl)c(Cl)c2C#N)CSC1` [1.1054], the LogP is 3.05^[a].
